Results as given in patent US9849130B2 (KamTek, Inc., priority 2014, dated 2017).
Converted amounts (≈) assume the structure as drawn. Like-named read-outs stand apart in the source and are kept apart here.

Key:
C. perfringens MH310 = experiment: microbe, parasite or virus in culture; assay type: cell-based
C. difficile = experiment: Minimum bactericidal concentration (MBC) against C. difficile; assay type: cell-based, Clostridium difficile
CD strains = experiment: In vitro activity of CFM + additional antimicrobial agent against CD (MIC alone/combination, FIC, ΣFIC); assay type: cell-based, Clostridium difficile; settings: CFM + VAN; for MIC: Clostridioides difficile
Escherichia coli strains = experiment: MIC by microdilution in Mueller-Hinton broth against Escherichia coli strains; assay type: cell-based
Enterococcus faecalis = experiment: MIC by microdilution in Mueller-Hinton broth against Enterococcus faecalis strains; assay type: cell-based; settings: Enterococcus faecalis
Enterococci faecium = experiment: MIC by microdilution in Mueller-Hinton broth against Enterococci faecium strains; assay type: cell-based, Enterococcus faecium
[1] = test system: Staphylococcus aureus strains; experiment: MIC by microdilution in Mueller-Hinton broth against Staphylococcus aureus strains; assay type: cell-based; settings: Staphylococcus aureus
Fusobacterium = experiment: MIC by microdilution in Brucella broth against Fusobacterium; assay type: cell-based, Fusobacterium spp.
Lactobacillus strains = experiment: MIC against Lactobacillus strains; assay type: cell-based, Lactobacillus spp.
[2] = test system: Lachnospiraceae and related bacterial strains; experiment: MIC against Lachnospiraceae and related bacterial strains; assay type: cell-based, Lachnospiraceae spp.
C. difficile VPI10463 = settings: Clostridioides difficile, C. difficile VPI10463
[3] = Test 13, CD strain BAA1805 (BI/NAP1/027)
[4] = Test 16, CD strain BAA1805 (BI/NAP1/027)

`CN[C@H](CC(C)C)C(=O)N[C@H]1C(=O)N[C@@H](CC(N)=O)C(=O)N[C@H]2C(=O)N[C@H]3C(=O)N[C@H](C(=O)N[C@H](C(=O)O)c4cc(O)cc(O)c4-c4cc3ccc4O)[C@H](O)c3ccc(c(Cl)c3)Oc3cc2cc(c3O[C@@H]2O[C@H](CO)[C@@H](O)[C@H](O)[C@H]2O[C@H]2C[C@](C)(N)[C@H](O)[C@H](C)O2)Oc2ccc(cc2Cl)[C@H]1O` [VAN, vancomycin] was tested, and the MIC (C. perfringens MH310) was 0.25 µg/mL (≈ 0.173 µM), the MIC (C. perfringens MH310; Clostridium perfringens, MH310) was 0.5 µg/mL (≈ 0.345 µM) and the MBC/MIC ratio range (C. difficile) was 1-4. It also gave an MBC (C. difficile; Clostridioides difficile, BAA1805) of 2 µg/mL (≈ 1.38 µM), an MIC (CD strains; BAA1805, read-out: MIC alone, Test 13, CD strain BAA1805 (BI/NAP1/027)) of 0.5 µg/mL and an MIC (CD strains; BAA1805, read-out: MIC alone, Test 16, CD strain BAA1805 (BI/NAP1/027)) of 0.5 µg/mL. The MIC (CD strains; read-out: MIC alone, Test 1, CD strain VPI 10463) was 2 µg/mL, the MIC (CD strains; read-out: MIC alone, Test 2, CD strain VPI 10463) was 2 µg/mL and the MIC (CD strains; read-out: MIC alone, Test 5, CD strain NR32889) was 2 µg/mL. The MIC (CD strains; read-out: MIC alone, Test 6, CD strain NR32890) was 1 µg/mL, the MIC (CD strains; read-out: MIC alone, Test 7, CD strain NR32885) was 1 µg/mL and the MIC (CD strains; read-out: MIC alone, Test 9, CD strain NR32885) was 1 µg/mL. For the same compound, the MIC (CD strains; read-out: MIC alone, Test 11, CD strain NR32885) was 1 µg/mL, the MIC (CD strains; read-out: MIC alone, Test 18, CD strain NR32888) was 0.5 µg/mL and the MIC (CD strains; read-out: MIC alone, Test 20, CD strain NR32888) was 0.5 µg/mL. It also gave an FIC (CD strains; Test 1, CD strain VPI 10463) of 0.25, an MIC combination (CD strains; Test 1, CD strain VPI 10463) of 0.5 µg/mL and an FIC (CD strains; Test 2, CD strain VPI 10463) of 0.25. For the same compound, the MIC combination (CD strains; Test 2, CD strain VPI 10463) was 0.5 µg/mL, the FIC (CD strains; Test 5, CD strain NR32889) was 1 and the MIC combination (CD strains; Test 5, CD strain NR32889) was 2 µg/mL. The FIC (CD strains; Test 6, CD strain NR32890) was 0.5, the MIC combination (CD strains; Test 6, CD strain NR32890) was 0.5 µg/mL and the FIC (CD strains; Test 7, CD strain NR32885) was 0.5. For the same compound, the MIC combination (CD strains; Test 7, CD strain NR32885) was 0.5 µg/mL, the FIC (CD strains; Test 9, CD strain NR32885) was 0.25 and the MIC combination (CD strains; Test 9, CD strain NR32885) was 0.25 µg/mL. It also gave an FIC (CD strains; Test 11, CD strain NR32885) of 0.25, an MIC combination (CD strains; Test 11, CD strain NR32885) of 0.25 µg/mL and an FIC (CD strains; [3]) of 0.062. For the same compound, the MIC combination (CD strains; [3]) was 0.031 µg/mL, the FIC (CD strains; [4]) was 0.25 and the MIC combination (CD strains; [4]) was 0.125 µg/mL. It also gave an FIC (CD strains; Test 18, CD strain NR32888) of 0.5, an MIC combination (CD strains; Test 18, CD strain NR32888) of 0.25 µg/mL and an FIC (CD strains; Test 20, CD strain NR32888) of 0.5. The MIC combination (CD strains; Test 20, CD strain NR32888) was 0.25 µg/mL, the MIC (Escherichia coli strains; E. coli NR 6, Mueller-Hinton broth) was greater than 32 µg/mL and the MIC (Escherichia coli strains; E. coli NR 8, Mueller-Hinton broth) was greater than 32 µg/mL. For the same compound, the MIC (Escherichia coli strains; E. coli NR 96, Mueller-Hinton broth) was greater than 32 µg/mL, the MIC (Escherichia coli strains; E. coli NR 104, Mueller-Hinton broth) was greater than 32 µg/mL and the MIC (Escherichia coli strains; E. coli NR 17626, Mueller-Hinton broth) was greater than 32 µg/mL. For the same compound, the MIC (Escherichia coli strains; E. coli NR 17627, Mueller-Hinton broth) was greater than 32 µg/mL, the MIC (Escherichia coli strains; E. coli NR 17633, Mueller-Hinton broth) was greater than 32 µg/mL and the MIC (Escherichia coli strains; E. coli NR 17647, Mueller-Hinton broth) was greater than 32 µg/mL. For the same compound, the MIC (Escherichia coli strains; E. coli NR 17650, Mueller-Hinton broth) was greater than 32 µg/mL, the MIC (Escherichia coli strains; E. coli NR 17661, Mueller-Hinton broth) was greater than 32 µg/mL and the MIC (Escherichia coli strains; Escherichia coli) was greater than 32 µg/mL. It also gave an MIC (Escherichia coli strains; Escherichia coli strain NR 6, Mueller-Hinton broth) greater than 32 µg/mL, an MIC (Escherichia coli strains; Escherichia coli strain NR 8, Mueller-Hinton broth) greater than 32 µg/mL and an MIC (Escherichia coli strains; Escherichia coli strain NR 96, Mueller-Hinton broth) greater than 32 µg/mL. It also gave an MIC (Escherichia coli strains; Escherichia coli strain NR 17626, Mueller-Hinton broth) greater than 32 µg/mL, an MIC (Escherichia coli strains; Escherichia coli strain NR 17627, Mueller-Hinton broth) greater than 32 µg/mL and an MIC (Escherichia coli strains; Escherichia coli strain NR 17633, Mueller-Hinton broth) greater than 32 µg/mL. The MIC (Escherichia coli strains; Escherichia coli strain NR 17647, Mueller-Hinton broth) was greater than 32 µg/mL, the MIC (Escherichia coli strains; Escherichia coli strain NR 17650, Mueller-Hinton broth) was greater than 32 µg/mL and the MIC (Escherichia coli strains; Escherichia coli strain NR 17661, Mueller-Hinton broth) was greater than 32 µg/mL. The MIC (Enterococcus faecalis; E. faecalis NR 31884) was 2 µg/mL (≈ 1.38 µM), the MIC (Enterococcus faecalis; E. faecalis NR 31885) was 2 µg/mL (≈ 1.38 µM) and the MIC (Enterococcus faecalis; E. faecalis NR 31886) was 1 µg/mL (≈ 0.69 µM). The MIC (Enterococcus faecalis; E. faecalis NR 31887) was 1 µg/mL (≈ 0.69 µM), the MIC (Enterococcus faecalis; E. faecalis NR 31888) was 2 µg/mL (≈ 1.38 µM) and the MIC (Enterococci faecium; E. faecium NR 31909, Mueller-Hinton broth) was greater than 32 µg/mL. It also gave an MIC (Enterococci faecium; E. faecium NR 31912, Mueller-Hinton broth) greater than 32 µg/mL, an MIC (Enterococci faecium; E. faecium NR 31915, Mueller-Hinton broth) greater than 32 µg/mL and an MIC (Enterococci faecium; E. faecium NR 31916, Mueller-Hinton broth) greater than 32 µg/mL. For the same compound, the MIC (Enterococci faecium; Enterococcus faecium) was greater than 32 µg/mL, the MIC ([1]; S. aureus NR 10129) was 1 µg/mL (≈ 0.69 µM) and the MIC ([1]; S. aureus NR 10186) was 1 µg/mL (≈ 0.69 µM). The MIC ([1]; S. aureus NR 10187) was 2 µg/mL (≈ 1.38 µM), the MIC ([1]; S. aureus NR 10188) was 1 µg/mL (≈ 0.69 µM) and the MIC ([1]; S. aureus NR 10189) was 2 µg/mL (≈ 1.38 µM). For the same compound, the MIC ([1]; S. aureus NR 10191) was 1 µg/mL (≈ 0.69 µM), the MIC ([1]; S. aureus NR 10192) was 1 µg/mL (≈ 0.69 µM) and the MIC ([1]; S. aureus NR 10193) was 2 µg/mL (≈ 1.38 µM). The MIC ([1]; S. aureus NR 10194) was 1 µg/mL (≈ 0.69 µM), the MIC ([1]; S. aureus NR 10198) was 2 µg/mL (≈ 1.38 µM) and the MIC ([1]; Staphylococcus aureus strain NR 10129) was 1 µg/mL (≈ 0.69 µM). The MIC ([1]; Staphylococcus aureus strain NR 10186) was 1 µg/mL (≈ 0.69 µM), the MIC ([1]; Staphylococcus aureus strain NR 10187) was 2 µg/mL (≈ 1.38 µM) and the MIC ([1]; Staphylococcus aureus strain NR 10188) was 1 µg/mL (≈ 0.69 µM). It also gave an MIC ([1]; Staphylococcus aureus strain NR 10189) of 2 µg/mL (≈ 1.38 µM), an MIC ([1]; Staphylococcus aureus strain NR 10191) of 1 µg/mL (≈ 0.69 µM) and an MIC ([1]; Staphylococcus aureus strain NR 10192) of 1 µg/mL (≈ 0.69 µM). The MIC ([1]; Staphylococcus aureus strain NR 10193) was 2 µg/mL (≈ 1.38 µM), the MIC ([1]; Staphylococcus aureus strain NR 10194) was 1 µg/mL (≈ 0.69 µM) and the MIC ([1]; Staphylococcus aureus strain NR 10198) was 2 µg/mL (≈ 1.38 µM). For the same compound, the MIC (Fusobacterium) was greater than 32 µg/mL, the MIC (Fusobacterium; Fusobacterium) was greater than 32 µg/mL and the “in vitro activity against Lactobacillus spp. (in words)” value (Lactobacillus strains) was “six strains susceptible and four resistant”. For the same compound, the “susceptibility of Lachnospiraceae and related organisms (in words)” value [2] was “susceptible”, the MIC ([2]; Clostridiales bacterium) was 0.25 µg/mL (≈ 0.173 µM) and the MIC (C. difficile VPI10463; VPI10463, Expt. 1, fecal extract (human feces 20% w/v in BHI)) was 1 µg/mL (≈ 0.69 µM). It also gave an MIC (C. difficile VPI10463; VPI10463, Expt. 1, −fecal extract) of 0.5 µg/mL (≈ 0.345 µM), an MIC (C. difficile VPI10463; VPI10463, Expt. 2, +fecal extract (human feces 20% w/v in BHI)) of 0.5 µg/mL (≈ 0.345 µM) and an MIC (C. difficile VPI10463; VPI10463, Expt. 2, −fecal extract) of 0.5 µg/mL (≈ 0.345 µM).
